Measurements reported in US20260262643A1, “HERBICIDAL BENZOXAZINES” (FMC CORPORATION, priority 2022, published 2026).

Columns and labels:
[1] = test system: kochia; experiment: Test C postemergence; type: in vivo, Bassia scoparia; details: 10 days, 0 to 100 scale (0 no effect, 100 complete control)
Outline: (§1)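 Seeds in loam–sand blend received preemergence directed soil spray of test chemicals in non-phytotoxic solvent with surfactant; postemergence treatment was applied at one- to two-leaf stage (2–10 cm). After 10 days in greenhouse, injury rated visually versus untreated controls, 0 (no effect) to 100 (complete control).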

[2] = test system: horseweed; experiment: Test C postemergence; type: in vivo, Erigeron canadensis; details: 10 days, 0 to 100 scale (0 no effect, 100 complete control)
Outline: as §1

[3] = test system: ryegrass, Italian; experiment: Test C postemergence; type: in vivo, Lolium multiflorum; details: 10 days, 0 to 100 scale (0 no effect, 100 complete control)
Outline: as §1

[4] = test system: barnyardgrass; experiment: Test C postemergence; type: in vivo, Echinochloa crusgalli; details: 10 days, 0 to 100 scale (0 no effect, 100 complete control)
Outline: as §1

[5] = test system: barnyardgrass; experiment: Test C preemergence; type: in vivo, Echinochloa crusgalli
Outline: as §1

[6] = test system: foxtail, giant; experiment: Test C preemergence; type: in vivo, Setaria faberi
Outline: as §1

[7] = test system: foxtail, giant; experiment: Test C postemergence; type: in vivo, Setaria faberi; details: 10 days, 0 to 100 scale (0 no effect, 100 complete control)
Outline: as §1

[8] = test system: sedge, umbrella; experiment: Test D flooded paddy test; type: in vivo, Cyperus difformis; details: 250 g ai/ha, applied to paddy water, visual rating after 13 to 14 days, scale 0 to 100 (0 no effect, 100 complete control)
Outline: (§2)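 Plants grown to the 2-leaf stage; pots flooded to 3 cm above soil at treatment and held at that depth throughout. Test compounds applied directly to the paddy water. After 13 to 14 days in a greenhouse, response was rated visually versus controls on a 0 (no effect) to 100 (complete control) scale.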

[9] = test system: galium; experiment: Test C postemergence; type: in vivo, Galium aparine; details: 10 days, 0 to 100 scale (0 no effect, 100 complete control)
Outline: as §1

[10] = test system: barnyardgrass; experiment: Test D flooded paddy test; type: in vivo, Echinochloa crus-galli; details: 250 g ai/ha, applied to paddy water, visual rating after 13 to 14 days, scale 0 to 100 (0 no effect, 100 complete control)
Outline: as §2

[11] = test system: oat, wild; experiment: Test C postemergence; type: in vivo, Avena fatua; details: 10 days, 0 to 100 scale (0 no effect, 100 complete control)
Outline: as §1

[12] = test system: blackgrass; experiment: Test C postemergence; type: in vivo, Alopecurus myosuroides; details: 10 days, 0 to 100 scale (0 no effect, 100 complete control)
Outline: as §1

[13] = test system: pigweed, palmer; experiment: Test C preemergence; type: in vivo, Amaranthus palmeri
Outline: as §1

[14] = test system: wheat; experiment: Test C postemergence; type: in vivo, Triticum aestivum; details: 10 days, 0 to 100 scale (0 no effect, 100 complete control)
Outline: as §1

[15] = test system: corn; experiment: Test C preemergence; type: in vivo, Zea mays; details: 500 g ai/ha, preemergence; 0 to 100 scale (0 no effect, 100 complete control)
Outline: as §1

[16] = test system: oat, wild; experiment: Test C preemergence; type: in vivo, Avena fatua
Outline: as §1

[17] = test system: ragweed; experiment: Test C preemergence; type: in vivo, Ambrosia artemisiifolia
Outline: as §1

[18] = test system: ducksalad; experiment: Test D flooded paddy test; type: in vivo, Heteranthera limosa; details: 250 g ai/ha, applied to paddy water, visual rating after 13 to 14 days, scale 0 to 100 (0 no effect, 100 complete control)
Outline: as §2

[19] = test system: soybean; experiment: Test C postemergence; type: in vivo, Glycine max; details: 10 days, 0 to 100 scale (0 no effect, 100 complete control)
Outline: as §1

[20] = test system: pigweed, palmer; experiment: Test C postemergence; type: in vivo, Amaranthus palmeri; details: 10 days, 0 to 100 scale (0 no effect, 100 complete control)
Outline: as §1

[21] = test system: wheat; experiment: Test C preemergence; type: in vivo, Triticum aestivum
Outline: as §1

[22] = test system: ryegrass, Italian; experiment: Test C preemergence; type: in vivo, Lolium multiflorum
Outline: as §1

[23] = test system: blackgrass; experiment: Test C preemergence; type: in vivo, Alopecurus myosuroides
Outline: as §1

[24] = test system: rice; experiment: Test D flooded paddy test; type: in vivo, Oryza sativa; details: 250 g ai/ha, applied to paddy water, visual rating after 13 to 14 days, scale 0 to 100 (0 no effect, 100 complete control)
Outline: as §2

[25] = test system: kochia; experiment: Test C preemergence; type: in vivo, Bassia scoparia
Outline: as §1

[26] = test system: ragweed; experiment: Test C postemergence; type: in vivo, Ambrosia artemisiifolia; details: 10 days, 0 to 100 scale (0 no effect, 100 complete control)
Outline: as §1

[27] = test system: soybean; experiment: Test C preemergence; type: in vivo, Glycine max
Outline: as §1

[28] = test system: corn; experiment: Test C postemergence; type: in vivo, Zea mays; details: 10 days, 0 to 100 scale (0 no effect, 100 complete control)
Outline: as §1

[29] = 500 g ai/ha, preemergence, 0 to 100 scale (0 no effect, 100 complete control)
[30] = Preemergence, 125 g ai/ha, 0 to 100 scale, 0 no effect, 100 complete control

Cc1ncn(-c2cccc(C(=O)N3C[C@H](C)Oc4c(Cl)cccc43)c2)n1 [Compound 326]
Plant response rating, Kochia ([1]; 500 g ai/ha, postemergence): 80 | Plant response rating, Kochia ([1]; Postemergence, 125 g ai/ha): 80 | Plant response rating, Horseweed ([2]; 500 g ai/ha, postemergence): 50 | Plant response rating, Horseweed ([2]; Postemergence, 125 g ai/ha): 0 | Plant response rating, Ryegrass, Italian ([3]; 500 g ai/ha, postemergence): 80 | Plant response rating, Ryegrass, Italian ([3]; Postemergence, 125 g ai/ha): 40 | Plant response rating, Barnyardgrass ([4]; 500 g ai/ha, postemergence): 80 | Plant response rating, Barnyardgrass ([4]; Postemergence, 125 g ai/ha): 30 | Barnyardgrass plant response rating [5, 29]: 90 | Plant response rating, Barnyardgrass [5, 30]: 60 | Foxtail, Giant plant response rating [6, 29]: 100 | Plant response rating, Foxtail, Giant [6, 30]: 100 | Plant response rating, Foxtail, Giant ([7]; 500 g ai/ha, postemergence): 90 | Plant response rating, Foxtail, Giant ([7]; Postemergence, 125 g ai/ha): 70 | Plant response rating, Sedge, Umbrella (Flood) [8]: 95 | Plant response rating, Galium ([9]; 500 g ai/ha, postemergence): 100 | Plant response rating, Galium ([9]; Postemergence, 125 g ai/ha): 100 | Plant response rating, Barnyardgrass (Flood) [10]: 15 | Plant response rating, Oat, Wild ([11]; 500 g ai/ha, postemergence): 50 | Plant response rating, Oat, Wild ([11]; Postemergence, 125 g ai/ha): 20 | Plant response rating, Blackgrass ([12]; 500 g ai/ha, postemergence): 80 | Plant response rating, Blackgrass ([12]; Postemergence, 125 g ai/ha): 80 | Pigweed, Palmer plant response rating [13, 29]: 100 | Plant response rating, Pigweed, Palmer [13, 30]: 60 | Plant response rating, Wheat ([14]; 500 g ai/ha, postemergence): 40 | Plant response rating, Wheat ([14]; Postemergence, 125 g ai/ha): 20 | Corn plant response rating [15]: 40 | Oat, Wild plant response rating [16, 29]: 80 | Plant response rating, Oat, Wild [16, 30]: 30 | Ragweed plant response rating [17, 29]: 0 | Plant response rating, Ragweed [17, 30]: 0 | Plant response rating, Ducksalad (Flood) [18]: 80 | Plant response rating, Soybean ([19]; 500 g ai/ha, postemergence): 100 | Plant response rating, Soybean ([19]; Postemergence, 125 g ai/ha): 100 | Plant response rating, Pigweed, Palmer ([20]; 500 g ai/ha, postemergence): 60 | Plant response rating, Pigweed, Palmer ([20]; Postemergence, 125 g ai/ha): 20 | Wheat plant response rating [21, 29]: 80 | Plant response rating, Wheat [21, 30]: 20 | Ryegrass, Italian plant response rating [22, 29]: 100 | Plant response rating, Ryegrass, Italian [22, 30]: 90 | Blackgrass plant response rating [23, 29]: 90 | Plant response rating, Blackgrass [23, 30]: 80 | Plant response rating, Rice (Flood) [24]: 0 | Kochia plant response rating [25, 29]: 90 | Plant response rating, Kochia [25, 30]: 80 | Plant response rating, Ragweed ([26]; 500 g ai/ha, postemergence): 60 | Plant response rating, Ragweed ([26]; Postemergence, 125 g ai/ha): 10 | Soybean plant response rating [27, 29]: 80 | Plant response rating, Soybean [27, 30]: 70 | Plant response rating, Corn ([28]; 500 g ai/ha, postemergence): 80 | Plant response rating, Corn ([28]; Postemergence, 125 g ai/ha): 10
